ChEMBL document CHEMBL1201862, “PubChem BioAssay data set” (2004)
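Compound exposure: 48 hours, 5 concentrations, 96-well plates. The concentration for 50% growth inhibition is given as GI50.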 Activity calls are given as the source filed them. Cut-off read from the data, not from the text of the source: active = GI50 up to about 1.1 µM and inactive = higher.

Legend:
Assay in all cases: NCI tumour cell line growth inhibition, 48 h
HCT-116 = test system: HCT-116
HOP-92 = test system: HOP-92
XF498 = test system: XF498
HOP-18 = test system: HOP-18
KM-20L2 = test system: KM-20L2
DLD-1 = test system: DLD-1
SNB-75 = test system: SNB-75
OVCAR-5 = test system: OVCAR-5
SK-MEL-5 = test system: SK-MEL-5
KM12 = test system: KM12
SF-539 = test system: SF-539
HL-60 = test system: HL-60
UO-31 = test system: UO-31
MCF7 = test system: MCF7
IGROV-1 = test system: IGROV-1
DMS-114 = test system: DMS-114
OVCAR-8 = test system: OVCAR-8
SK-MEL-28 = test system: SK-MEL-28
NCI-H23 = test system: NCI-H23
UACC-257 = test system: UACC-257
SW-620 = test system: SW-620
Malme-3M = test system: Malme-3M
LOX IMVI = test system: LOX IMVI
SNB-78 = test system: SNB-78
SF-268 = test system: SF-268
NCI-H226 = test system: NCI-H226
CAKI-1 = test system: CAKI-1
SK-MEL-2 = test system: SK-MEL-2
MOLT-4 = test system: MOLT-4
HOP-62 = test system: HOP-62
HT-29 = test system: HT-29
NCI-H460 = test system: NCI-H460
EKVX = test system: EKVX
SNB-19 = test system: SNB-19
OVCAR-4 = test system: OVCAR-4
SK-OV-3 = test system: SK-OV-3
SN12C = test system: SN12C
CCRF-CEM = test system: CCRF-CEM
DMS-273 = test system: DMS-273
U-251 = test system: U-251
RPMI-8226 = test system: RPMI-8226
M19-MEL = test system: M19-MEL
SF-295 = test system: SF-295
HCC 2998 = test system: HCC 2998
HCT-15 = test system: HCT-15
RXF 393 = test system: RXF 393
NCI-H522 = test system: NCI-H522
K562 = test system: K562
UACC-62 = test system: UACC-62
COLO 205 = test system: COLO 205
NCI/ADR-RES = test system: NCI/ADR-RES
OVCAR-3 = test system: OVCAR-3
A549 = test system: A549
A498 = test system: A498
M14 = test system: M14
ACHN = test system: ACHN
LXFL 529 = test system: LXFL 529
TK-10 = test system: TK-10
786-0 = test system: 786-0
SR = test system: SR

## O=C1c2cccc3cc4ccccc4c(c23)C(=O)N1CCNCCN1C(=O)c2cccc3cc4ccccc4c(c23)C1=O
HCT-116
  GI50: 0.415 µM (active)
HOP-92
  GI50: 0.449 µM (active)
XF498
  GI50: 0.254 µM (active)
HOP-18
  GI50: 0.231 µM (active)
KM-20L2
  GI50: 0.518 µM (active)
DLD-1
  GI50: 0.714 µM (active)
SNB-75
  GI50: 0.373 µM (active)
OVCAR-5
  GI50: 0.406 µM (active)
SK-MEL-5
  GI50: 0.504 µM (active)
KM12
  GI50: 3.93 µM (inactive)
SF-539
  GI50: 0.773 µM (active)
HL-60
  GI50: 0.178 µM (active)
UO-31
  GI50: 0.277 µM (active)
MCF7
  GI50: 0.282 µM (active)
IGROV-1
  GI50: 0.589 µM (active)
DMS-114
  GI50: 0.23 µM (active)
OVCAR-8
  GI50: 0.357 µM (active)
SK-MEL-28
  GI50: 0.592 µM (active)
NCI-H23
  GI50: 0.364 µM (active)
UACC-257
  GI50: 1.27 µM (inactive)
SW-620
  GI50: 0.238 µM (active)
Malme-3M
  GI50: 0.465 µM (active)
LOX IMVI
  GI50: 0.233 µM (active)
SNB-78
  GI50: 0.518 µM (active)
SF-268
  GI50: 1.22 µM (inactive)
NCI-H226
  GI50: 2.21 µM (inactive)
CAKI-1
  GI50: 0.245 µM (active)
SK-MEL-2
  GI50: 1.58 µM (inactive)
MOLT-4
  GI50: 0.097 µM (active)
HOP-62
  GI50: 1.04 µM (active)
HT-29
  GI50: 0.351 µM (active)
NCI-H460
  GI50: 0.0541 µM (active)
EKVX
  GI50: 0.587 µM (active)
SNB-19
  GI50: 0.39 µM (active)
OVCAR-4
  GI50: 0.625 µM (active)
SK-OV-3
  GI50: 1.34 µM (inactive)
SN12C
  GI50: 0.306 µM (active)
CCRF-CEM
  GI50: 0.199 µM (active)
DMS-273
  GI50: 0.277 µM (active)
U-251
  GI50: 0.282 µM (active)
RPMI-8226
  GI50: 0.718 µM (active)
M19-MEL
  GI50: 0.508 µM (active)
SF-295
  GI50: 0.243 µM (active)
HCC 2998
  GI50: 0.912 µM (active)
HCT-15
  GI50: 0.309 µM
RXF 393
  GI50: 0.525 µM (active)
NCI-H522
  GI50: 1.53 µM (inactive)
K562
  GI50: 0.301 µM (active)
UACC-62
  GI50: 0.318 µM (active)
COLO 205
  GI50: 0.731 µM (active)
NCI/ADR-RES
  GI50: 0.522 µM (active)
OVCAR-3
  GI50: 0.484 µM (active)
A549
  GI50: 0.186 µM (active)
A498
  GI50: 0.716 µM (active)

## Cc1ccc(NC(=O)CC2C(=O)Nc3ccccc3[S+]2[O-])cc1C (configuration not stated)
HCT-116
  GI50: 49.2 µM (inactive)
HOP-92
  GI50: 26 µM (inactive)
XF498
  GI50: > 100 µM (inactive)
KM-20L2
  GI50: > 100 µM (inactive)
DLD-1
  GI50: > 100 µM (inactive)
SNB-75
  GI50: > 100 µM (inactive)
OVCAR-5
  GI50: > 100 µM (inactive)
SK-MEL-5
  GI50: 73.8 µM (inactive)
M14
  GI50: > 100 µM (inactive)
SF-539
  GI50: 23.7 µM (inactive)
HL-60
  GI50: 41.7 µM (inactive)
UO-31
  GI50: 42.1 µM (inactive)
IGROV-1
  GI50: > 100 µM (inactive)
DMS-114
  GI50: 48.1 µM (inactive)
OVCAR-8
  GI50: 34 µM (inactive)
SK-MEL-28
  GI50: > 100 µM (inactive)
NCI-H23
  GI50: 63.5 µM (inactive)
ACHN
  GI50: 73.8 µM (inactive)
UACC-257
  GI50: > 100 µM (inactive)
SW-620
  GI50: 66.4 µM (inactive)
Malme-3M
  GI50: > 100 µM (inactive)
LOX IMVI
  GI50: 48.6 µM (inactive)
SNB-78
  GI50: > 100 µM (inactive)
SF-268
  GI50: 75.2 µM (inactive)
NCI-H226
  GI50: > 100 µM (inactive)
CAKI-1
  GI50: > 100 µM (inactive)
SK-MEL-2
  GI50: > 100 µM (inactive)
MOLT-4
  GI50: 25.5 µM (inactive)
HT-29
  GI50: > 100 µM (inactive)
LXFL 529
  GI50: 88.3 µM (inactive)
TK-10
  GI50: > 100 µM (inactive)
NCI-H460
  GI50: > 100 µM (inactive)
EKVX
  GI50: > 100 µM (inactive)
SNB-19
  GI50: 46 µM (inactive)
OVCAR-4
  GI50: 16.4 µM (inactive)
SN12C
  GI50: > 100 µM (inactive)
CCRF-CEM
  GI50: > 100 µM (inactive)
DMS-273
  GI50: 28.1 µM (inactive)
U-251
  GI50: 44.3 µM (inactive)
RPMI-8226
  GI50: 29 µM (inactive)
M19-MEL
  GI50: > 100 µM (inactive)
SF-295
  GI50: > 100 µM (inactive)
HCC 2998
  GI50: > 100 µM (inactive)
786-0
  GI50: 24.8 µM (inactive)
HCT-15
  GI50: > 100 µM
RXF 393
  GI50: 22 µM (inactive)
NCI-H522
  GI50: 32.1 µM (inactive)
K562
  GI50: 91.8 µM (inactive)
SR
  GI50: 63.5 µM (inactive)
UACC-62
  GI50: > 100 µM (inactive)
OVCAR-3
  GI50: 40.6 µM (inactive)
A549
  GI50: > 100 µM (inactive)
A498
  GI50: > 100 µM (inactive)
